Measurements taken from patent US10085973B2, “Pharmaceutical composition containing a compound having a thrombopoietin receptor agonistic activity” (Shionogi & Co., Ltd., priority 2012, dated 2018).
Converted amounts (≈) assume the structure as drawn.

What was measured:
[1] = PK model from phase 1 trial in healthy male adults (plasma concentration); type: in vivo, human
Description: Using the plasma concentration of the drug and the platelet count data of 54 cases obtained in phase 1 trial carried out in Japan to healthy male adults, a PK/PD model was constructed that can describe pharmacokinetics and a profile of a platelet count. The PK model describing pharmacokinetics was a three-compartment model including three compartments in the absorption process in order to explain the delay in absorption. The PD model describing the relation between the plasma concentration and the profile of platelets counts was a model including five compartments in order to explain the maturation process of platelets. […] We assumed that the distributions of respective model parameters and the distributions of the residual errors of the models follow a log-normal distribution. Parameters were estimated by using the first order conditional estimation method with interaction in a software NONMEM (version VI, level 2.0).

[2] = tested on: platelet count; assay: Estimated PD model parameters for chronic liver disease patients (for Monte-Carlo simulation); design: species or system human
Description: Based on the PK/PD model in healthy adults as described in (Test Example 1), model parameters in chronic liver disease patients were estimated on the basis of the following assumptions.
Based on the pre-defined level of platelet count expected in chronic liver disease patients, the average and range of PLT0 were set to 3×10^4/μL and 2×10^4 to 4.9×10^4/μL, respectively.
It was reported that platelets destruction in chronic liver disease patients was promoted (see Reference 1) and the survival period of platelets was about ⅔ of that of healthy adults (see References 2 and 3). Therefore, kdeg, a parameter representing the elimination rate of platelets, was set to the value which was about 1.5 times of the value of healthy adults, i.e. 0.009 hr^−1. In addition, based on the relationship that the production rate of platelets is equal to the elimination rate of platelets at baseline, kpr, a parameter representing the production rate of platelets, was calculated from the formula: PLT0×kdeg. As a result, kpr was 0.027×10^4/μL/hr which was lower than the value in healthy adults (0.116×10^4/μL/hr). This estimated value matched the previous report that the production rate of platelets was decreased in chronic liver disease patients (see Reference 1).
It was assumed that a parameter km representing the maturation rate of platelets in chronic liver disease patients is similar to that in healthy adults. Therefore, the estimated value in healthy adults was used as km.
When the plasma concentration is sufficiently lower than EC50 (EC50>>C), the drug efficacy of lusutrombopag can be approximated by Emax/EC50. It was assumed based on the clinical data of eltrombopag, a drug having the same efficacy (see References 4 and 5) that Emax/EC50 in this trial was about 3 times of the value of healthy adults. […] Meanwhile, it was assumed that r in the patients was similar to that in healthy adults. Therefore, the value in healthy adults was used as r.
A reduction in the production rate of platelets with an increase in platelets, i.e. the negative feedback phenomenon, is represented by the formula (PLT0/PLT)^γ. […] Therefore, the negative feedback phenomenon was not taken into account in the present simulation.
As inter-individual variability of the respective PD parameters, the values in healthy adults were used.
The intra-individual variability of plasma concentration was not taken into account in the present simulation. As the intra-individual variability of a platelet count, the value in healthy adults was used.

CL (apparent total clearance), mean [1]: 0.776 L/h
Intra-individual variability (PK model, plasma concentration) [1]: 12.1%
Q3/F (inter-compartmental clearance), mean [1]: 0.946 L/h
Q4/F (inter-compartmental clearance), mean [1]: 0.0262 L/h
V3/F (volume of distribution of peripheral compartment), mean [1]: 6.28 L
V4/F (volume of distribution of peripheral compartment), mean [1]: 2.71 L
ka (transfer rate constant from absorption compartments to central compartment), mean ([1]; Fasting + solution): 0.563 h⁻¹
ktr (inter-absorption-compartmental transfer rate constant), mean ([1]; Fasting + solution): 4.19 h⁻¹
ka (transfer rate constant from absorption compartments to central compartment), mean ([1]; Postprandial + solution): 0.285 h⁻¹
ktr (inter-absorption-compartmental transfer rate constant), mean ([1]; Postprandial + solution): 2.15 h⁻¹
ka (transfer rate constant from absorption compartments to central compartment), mean ([1]; Postprandial + tablet): 0.854 h⁻¹
ktr (inter-absorption-compartmental transfer rate constant), mean ([1]; Postprandial + tablet): 1.38 h⁻¹
EC50, mean ([2]; set by assumption): 0.18 µg/mL (≈ 0.304 µM)
Compound: CCCCCCO[C@@H](C)c1cccc(-c2csc(NC(=O)c3cc(Cl)c(/C=C(\C)C(=O)O)c(Cl)c3)n2)c1OC [lusutrombopag, (E)-3-[2,6-dichloro-4-[4-[3-[(S)-1-hexyloxyethyl]-2-methoxyphenyl]-thiazol-2-ylcarbamoyl]-phenyl]-2-methylacrylic acid]
Vd/F ([1]; male, human, plasma, oral, × (1 + (BW − 63) × 0.0172), BW body weight kg, read-out: V2/F (volume of distribution of the central compartment), mean): 15.9 L
kdeg, mean ([2]; about 1.5 times of healthy adults): 2.5e-06 s⁻¹
Emax, mean ([2]; set by assumption): 29.3
km, mean ([2]; value of healthy adults): 0.0394 h⁻¹
r, mean ([2]; value of healthy adults): 2.03
